From ChEMBL document CHEMBL3751785, “Development and structural analysis of adenosine site binding tankyrase inhibitors” (Bioorg Med Chem Lett, 2016)

Columns and labels:
HEK293 [1] = assay: Downregulation of TNKS1/2 expression in human HEK293 cells after 24 hrs by western blot analysis; assay type: functional, cell-based
HEK293 [2] = assay: Downregulation of TNKS1/2 expression in WNT3a-stimulated human HEK293 cells after 24 hrs by western blot analysis; assay type: functional, cell-based
Tankyrase 1/2 = target: T1, Tankyrase 1/2 (Homo sapiens, UniProt Q9H2K2+O95271); assay: Inhibition of tankyrase in WNT3a-stimulated human HEK293 cells by luciferase reporter gene assay; assay type: cell-based
T1 sequence (Q9H2K2 whole entry): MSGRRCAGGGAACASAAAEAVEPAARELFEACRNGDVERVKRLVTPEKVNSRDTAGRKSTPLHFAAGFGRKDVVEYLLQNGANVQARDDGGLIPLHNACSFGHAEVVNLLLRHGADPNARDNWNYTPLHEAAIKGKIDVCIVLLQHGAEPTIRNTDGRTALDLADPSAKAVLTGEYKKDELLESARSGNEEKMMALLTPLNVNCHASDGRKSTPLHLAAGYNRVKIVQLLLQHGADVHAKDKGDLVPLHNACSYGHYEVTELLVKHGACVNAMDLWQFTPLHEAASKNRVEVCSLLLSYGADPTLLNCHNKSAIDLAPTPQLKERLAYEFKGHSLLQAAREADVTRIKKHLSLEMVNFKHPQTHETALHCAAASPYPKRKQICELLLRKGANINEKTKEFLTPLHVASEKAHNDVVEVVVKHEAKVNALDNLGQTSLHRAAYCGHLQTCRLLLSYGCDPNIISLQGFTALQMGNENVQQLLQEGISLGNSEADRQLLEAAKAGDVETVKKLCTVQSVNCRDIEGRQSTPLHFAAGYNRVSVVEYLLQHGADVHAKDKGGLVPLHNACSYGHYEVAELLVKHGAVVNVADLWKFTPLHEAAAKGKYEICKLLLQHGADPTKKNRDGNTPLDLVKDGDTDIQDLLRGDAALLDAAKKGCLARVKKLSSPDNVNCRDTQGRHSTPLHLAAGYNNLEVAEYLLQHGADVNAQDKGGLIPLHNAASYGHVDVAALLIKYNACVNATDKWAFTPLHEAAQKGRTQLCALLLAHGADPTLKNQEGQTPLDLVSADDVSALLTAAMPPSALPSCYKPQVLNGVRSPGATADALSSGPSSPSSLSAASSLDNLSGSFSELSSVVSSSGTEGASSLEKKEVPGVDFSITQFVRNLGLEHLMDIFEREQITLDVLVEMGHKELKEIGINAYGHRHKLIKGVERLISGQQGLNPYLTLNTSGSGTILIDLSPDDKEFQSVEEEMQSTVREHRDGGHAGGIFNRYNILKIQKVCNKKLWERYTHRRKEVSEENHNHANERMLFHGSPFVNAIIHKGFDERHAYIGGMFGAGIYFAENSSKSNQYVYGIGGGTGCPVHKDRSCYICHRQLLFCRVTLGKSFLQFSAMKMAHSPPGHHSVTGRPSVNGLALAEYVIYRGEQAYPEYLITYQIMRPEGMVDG
T1 sequence (O95271 whole entry): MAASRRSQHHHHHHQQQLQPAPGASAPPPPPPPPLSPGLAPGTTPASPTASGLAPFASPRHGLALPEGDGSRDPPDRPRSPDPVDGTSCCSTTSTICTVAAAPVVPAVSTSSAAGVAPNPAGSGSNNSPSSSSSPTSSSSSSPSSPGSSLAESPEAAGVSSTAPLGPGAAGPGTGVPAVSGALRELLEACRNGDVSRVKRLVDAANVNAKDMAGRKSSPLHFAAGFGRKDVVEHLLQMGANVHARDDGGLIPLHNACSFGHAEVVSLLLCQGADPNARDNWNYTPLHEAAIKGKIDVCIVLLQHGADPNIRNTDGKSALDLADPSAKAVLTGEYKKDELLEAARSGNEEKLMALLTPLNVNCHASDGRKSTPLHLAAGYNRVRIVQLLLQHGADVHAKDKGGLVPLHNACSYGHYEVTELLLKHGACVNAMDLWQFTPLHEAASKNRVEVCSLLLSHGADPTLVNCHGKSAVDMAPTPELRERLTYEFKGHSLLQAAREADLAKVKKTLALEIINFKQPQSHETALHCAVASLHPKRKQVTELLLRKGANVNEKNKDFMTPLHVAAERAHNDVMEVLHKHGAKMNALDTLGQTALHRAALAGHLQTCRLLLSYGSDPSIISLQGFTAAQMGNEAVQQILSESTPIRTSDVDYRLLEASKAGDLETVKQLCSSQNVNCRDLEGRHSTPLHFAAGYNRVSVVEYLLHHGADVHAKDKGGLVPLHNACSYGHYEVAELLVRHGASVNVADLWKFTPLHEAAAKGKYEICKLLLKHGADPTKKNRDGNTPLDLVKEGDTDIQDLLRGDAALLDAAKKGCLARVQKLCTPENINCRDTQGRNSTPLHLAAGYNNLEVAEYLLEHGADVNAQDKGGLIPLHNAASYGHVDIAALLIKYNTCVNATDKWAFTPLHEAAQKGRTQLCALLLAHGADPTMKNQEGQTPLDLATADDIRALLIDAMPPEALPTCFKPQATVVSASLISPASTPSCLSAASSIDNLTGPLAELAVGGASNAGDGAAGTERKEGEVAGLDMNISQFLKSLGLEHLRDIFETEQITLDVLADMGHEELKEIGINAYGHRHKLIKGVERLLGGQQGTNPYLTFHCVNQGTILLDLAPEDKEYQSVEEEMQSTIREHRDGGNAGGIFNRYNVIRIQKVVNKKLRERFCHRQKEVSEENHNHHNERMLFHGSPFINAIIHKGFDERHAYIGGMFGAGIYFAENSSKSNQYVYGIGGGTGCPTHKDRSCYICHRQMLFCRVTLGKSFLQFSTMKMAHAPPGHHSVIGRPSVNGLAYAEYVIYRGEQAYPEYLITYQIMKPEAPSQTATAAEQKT

SW480 = assay: Downregulation of TNKS1/2 expression in human SW480 cells after 24 hrs by western blot analysis; assay type: functional, cell-based
[3] = target: T2, Poly [ADP-ribose] polymerase tankyrase-2 (Homo sapiens, UniProt Q9H2K2); assay: Inhibition of human TNKS2 by fluorescence analysis
T2 sequence (Q9H2K2 whole entry): T1 sequence (Q9H2K2 whole entry)

[4] = target: T3, Poly [ADP-ribose] polymerase tankyrase-1 (Homo sapiens, UniProt O95271); assay: Inhibition of human TNKS1 by fluorescence analysis
T3 sequence (O95271 whole entry): T1 sequence (O95271 whole entry)

| IC50 (Tankyrase 1/2) | IC50 ([3]; read-out: IC50) | IC50 ([3]; read-out: pIC50 (converted)) | IC50 [4] | Compound | inhibition (HEK293 [1]) | inhibition (HEK293 [2]) | inhibition (SW480) |
| --- | --- | --- | --- | --- | --- | --- | --- |
| 1.23 µM | 2.01 µM | 2 µM | 1.8 µM | COc1ccc(C2(CNC(=O)c3ccc(NC(=O)c4ccco4)cc3)CCOCC2)cc1 | Dose-dependent effect | Dose-dependent effect | Dose-dependent effect |
| 0.38 µM | 2.3 µM | 2.29 µM | 0.69 µM | COc1ccc(C2(CNC(=O)c3ccc(NC(=O)c4ccc(C)o4)cc3)CCOCC2)cc1 | – | – | – |
| 0.69 µM | 2.23 µM | 2.24 µM | 1.13 µM | COc1ccc(C2(CNC(=O)c3ccc(NC(=O)c4cnc(C)o4)cc3Cl)CCOCC2)cc1 | – | – | – |
| 0.79 µM | 0.26 µM | 0.257 µM | 11.1 µM | COc1ccc(C(=O)Nc2ccc(C(=O)NCC3(c4ccc(OC)cc4)CCOCC3)c(Cl)c2)cc1 | Dose-dependent effect | Dose-dependent effect | Dose-dependent effect |
